Data taken from PMC8329280 (Scientific Reports, 2021).
Non-standard residues stand in square brackets, D forms with d. Residues, ends and D or L forms follow the SMILES beside them. No end group written: not given here. Dopa = N[C@@H](Cc1ccc(O)c(O)c1)C(=O)O

Key:
[1] = test system: methicillin sensitive S. aureus (MSSA, strain 49775); format: cell-based, Staphylococcus aureus
Procedure: (§1) Antibacterial assays were realized to the method previously reported[22],[25]. S. aureus strains were pre-cultured for 20 h in aerobic conditions at 37 °C in Mueller–Hinton Broth (MHB) medium (Becton–Dickinson Microbiology Company, Sparks, USA) (pH 7.4). Bacteria were suspended at absorbance of 0.001 at 620 nm in the MHB medium. Antibacterial activity was tested for 24 h incubation at 37 °C with shaking by measuring the inhibition of bacterial growth. Ten µl of final volumes (10–200 µg/mL) of synthetic peptides were incubated in microtitration plates with 90 µl of a mid-logarithmic phase culture of bacteria, with a starting absorbance of 0.001 at 620 nm. A mixture of Tetracycline (10 mg/L) and Cefotaxime (0.1 mg/L) were used as positive controls. Microbial growth was assessed by the increase of absorbance after 24 h incubation at 37 °C. The A620 nm value of control cultures growing in the absence of peptide and antibiotics was defined as 100% growth. A620 nm value with the antibiotics (Tetracycline and Cefotaxime) was taken as 100% inhibition. Absence of bacterial growth was verified by agar plate spreading. Each assay was performed in triplicates. Data were shown as mean + /− standard deviation of three independent experiments; p < 0.05.

S. aureus 25923 (MSSA) = format: cell-based, Staphylococcus aureus; conditions: 25923, 24 h
Procedure: as §1

S. aureus V8 = format: cell-based, Staphylococcus aureus; conditions: V8, 24 h
Procedure: as §1

[2] = biological target: Endoprotease Glu-C from S. aureus V8 (E.C. 3.4.21.19) (Staphylococcus aureus, UniProt P0C1U8); conditions: 50 mM Tris–HCl pH 8.2, 37 °C, enzyme added for 4 h then same amount for 18 h; RP-HPLC, optical density at 214 nm
Procedure: Endoprotease Glu-C from S. aureus V8 (E.C. 3.4.21.19) was provided from Sigma Aldrich (Saint Louis, USA). Digestion of DOPA5T-Ctl (12.5 µg) by endoprotease Glu-C (Sigma-Aldrich Chemie Saint Quentin Fallavier, France) (3.5 µg) was obtained for 18 h at 37 °C in 50 mM Tris–HCl pH 8.2 or PBS[28]. Enzyme (1.75 µg) was added for a digestion of 4 h and then the same amount was added for 18 h. The enzymatic digestion was stopped by addition of 25 µL of 0.1% (vol/vol) TFA in milliQ water. The fragments resulting from enzymatic digestion were isolated with a RP-HPLC with a Dionex HPLC system on a Vydac 208 TP C8 column (3 × 250 mm), and identified by Maldi-tof mass spectrometry, as previously reported for the characterization of the synthetic peptides.

Citrobacter freundii = format: cell-based
Klebsiella pneumoniae = format: cell-based
Procedure: (§2) The L- and D- forms of Ctl and also the corresponding L- and D-forms of the scramble peptides were tested by Atlangram (Nantes, France) against resistant Gram-negative bacteria (Escherichia coli, Klebsiella pneumoniae, Enterobacter cloacae, Enterobacter aerogenes, Serratia marcescens, Morganella morganii, Pseudomonas aeruginosa), MSSA, MRSA and yeast (C. albicans). The MICs were determined according to the CASFM/EUCAST 2018 (Comité de l’Antibiogramme de la Société Française de Microbiologie).

Escherichia coli = format: cell-based
Procedure: as §2

Pseudomonas aeruginosa = format: cell-based
Procedure: as §2

Candida albicans = format: cell-based
Procedure: as §2

Enterobacter cloacae = format: cell-based
Procedure: as §2

Enterobacter aerogenes = format: cell-based
Procedure: as §2

Morganella morganii = format: cell-based
Procedure: as §2

Serratia marcescens = format: cell-based
Procedure: as §2

MSSA = format: cell-based, Staphylococcus aureus
Procedure: as §2

MRSA = format: cell-based, Staphylococcus aureus
Procedure: as §2

[3] = test system: human gingival fibroblast (HGF-1); conditions: cited from earlier work
[4] = test system: human intestinal epithelial cell (caco-2); conditions: cited from earlier work
[5] = test system: proteases produced by Staphylococcus aureus; conditions: cited from earlier work
Text: In particular, CgA is an acidic glyco-phospho-protein stored in secretory vesicles of numerous nervous, neuroendocrine and immune cells. […] In a ...

Endoprotease Glu-C from S. aureus V8 (E.C. 3.4.21.19), sequence (P0C1U8 69-336): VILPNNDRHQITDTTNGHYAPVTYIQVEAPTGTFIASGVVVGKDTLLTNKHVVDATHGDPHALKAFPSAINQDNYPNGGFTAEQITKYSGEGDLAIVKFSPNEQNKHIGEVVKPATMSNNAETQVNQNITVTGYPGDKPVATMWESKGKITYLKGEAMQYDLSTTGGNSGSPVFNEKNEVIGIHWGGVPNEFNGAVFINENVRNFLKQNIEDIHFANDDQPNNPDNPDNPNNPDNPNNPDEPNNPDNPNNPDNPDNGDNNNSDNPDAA

Row | Compound | IC50 ([1]; methicillin sensitive (, strain 49775, 24 h)) | IC50 (S. aureus 25923 (MSSA)) | IC50 (S. aureus V8) | Ctl and its oxidized form released after Glu-C digestion [2] | proteolysis by Glu-C endoprotease [2] | MIC (Citrobacter freundii) | MIC (Klebsiella pneumoniae) | MIC (Escherichia coli) | MIC (Pseudomonas aeruginosa) | MIC (Candida albicans) | MIC (Enterobacter cloacae) | MIC (Enterobacter aerogenes) | MIC (Morganella morganii) | MIC (Serratia marcescens) | MIC (MSSA) | MIC (MRSA) | toxicity for HGF-1 [3] | MIC MSSA ([1]; methicillin sensitive (, strain 49775, 20 h)) | toxicity for caco-2 [4] | degradation by the proteases produced by Staphylococcus aureus [5]
1 | CSCC[C@H](NC(=O)[C@H](CO)NC(=O)[C@H](CCCNC(=N)N)NC(=O)[C@H](CCC(=O)O)NC(=O)CNC(=O)CNC(=O)[C@H](CCCNC(=N)N)NC(=O)[C@H](CC(C)C)NC(=O)[C@@H](NC(=O)[C@H](Cc1ccc(O)c(O)c1)NC(=O)[C@H](CCCCN)NC(=O)[C@H](Cc1ccc(O)c(O)c1)NC(=O)[C@H](CCCCN)NC(=O)[C@@H](N)Cc1ccc(O)c(O)c1)[C@@H](C)O)C(=O)N[C@@H](CCCNC(=N)N)C(=O)N[C@@H](CC(C)C)C(=O)N[C@@H](CO)C(=O)N[C@@H](Cc1ccccc1)C(=O)N[C@@H](CCCNC(=N)N)C(=O)N[C@@H](C)C(=O)N[C@@H](CCCNC(=N)N)C(=O)NCC(=O)N[C@@H](Cc1ccc(O)cc1)C(=O)NCC(=O)N[C@@H](Cc1ccccc1)C(=O)N[C@@H](CCCNC(=N)N)C(=O)O [DOPA5T-Ctl] (H-[Dopa]K[Dopa]K[Dopa]TLRGGERSMRLSFRARGYGFR-OH) | 45 µM | 20 µM | 65 µM | 76% | full proteolysis | – | – | – | – | – | – | – | – | – | – | – | – | – | – | –
2 | FMRLRYRSSAFGGRR [Control L, reference compound] | – | – | – | – | – | > 128 µg/mL | > 128 µg/mL | > 128 µg/mL | > 128 µg/mL | 512 µg/mL | > 128 µg/mL | > 128 µg/mL | > 128 µg/mL | > 128 µg/mL | > 128 µg/mL | > 128 µg/mL | – | – | – | –
3 | RSMRLSFRARGYGFR [Ctl, Cateslytin] | – | – | – | – | – | – | – | – | > 128 µg/mL | 512 µg/mL | > 128 µg/mL | – | > 128 µg/mL | > 128 µg/mL | > 128 µg/mL | > 128 µg/mL | not toxic | 93.0 µg/mL | not toxic | resistant to degradation
